Data on two compounds can be found in PMC6205551, “Molecular analysis of the dual targeting of the epidermal growth factor receptor and the O^6-methylguanine-DNA methyltransferase with a double arm hybrid molecule” (Oncotarget, 2018).

Structures are written as SMILES.

The target of assay [1] is T1, O^6-methylguanine-DNA methyltransferase (MGMT) (Homo sapiens, UniProt P16455).
T1 sequence (P16455 1-207): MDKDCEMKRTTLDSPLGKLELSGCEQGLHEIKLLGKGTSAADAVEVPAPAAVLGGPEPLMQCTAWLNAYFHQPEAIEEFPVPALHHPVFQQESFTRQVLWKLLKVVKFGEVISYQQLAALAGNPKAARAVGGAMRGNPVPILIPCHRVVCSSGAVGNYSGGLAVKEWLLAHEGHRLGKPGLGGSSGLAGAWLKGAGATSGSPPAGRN
Kind of assay: MALDI-TOF MS of tryptic peptides of isolated MGMT incubated with […] compound (S-benzylation). The assay is classed as binding.

Assay [2] addresses epidermal growth factor receptor (EGFR) (Homo sapiens, UniProt P00533). As to the kind of experiment: in vitro EGFR kinase assay (PGT substrate, […] ATP, ELISA). It is filed as biochemical. In general terms: ELISA stands for enzyme-linked immunosorbent assay.
In assay [3] the target is T2, HER4 (Homo sapiens, UniProt Q15303).
T2 construct: gene ERBB4
T2 sequence (Q15303 26-1308): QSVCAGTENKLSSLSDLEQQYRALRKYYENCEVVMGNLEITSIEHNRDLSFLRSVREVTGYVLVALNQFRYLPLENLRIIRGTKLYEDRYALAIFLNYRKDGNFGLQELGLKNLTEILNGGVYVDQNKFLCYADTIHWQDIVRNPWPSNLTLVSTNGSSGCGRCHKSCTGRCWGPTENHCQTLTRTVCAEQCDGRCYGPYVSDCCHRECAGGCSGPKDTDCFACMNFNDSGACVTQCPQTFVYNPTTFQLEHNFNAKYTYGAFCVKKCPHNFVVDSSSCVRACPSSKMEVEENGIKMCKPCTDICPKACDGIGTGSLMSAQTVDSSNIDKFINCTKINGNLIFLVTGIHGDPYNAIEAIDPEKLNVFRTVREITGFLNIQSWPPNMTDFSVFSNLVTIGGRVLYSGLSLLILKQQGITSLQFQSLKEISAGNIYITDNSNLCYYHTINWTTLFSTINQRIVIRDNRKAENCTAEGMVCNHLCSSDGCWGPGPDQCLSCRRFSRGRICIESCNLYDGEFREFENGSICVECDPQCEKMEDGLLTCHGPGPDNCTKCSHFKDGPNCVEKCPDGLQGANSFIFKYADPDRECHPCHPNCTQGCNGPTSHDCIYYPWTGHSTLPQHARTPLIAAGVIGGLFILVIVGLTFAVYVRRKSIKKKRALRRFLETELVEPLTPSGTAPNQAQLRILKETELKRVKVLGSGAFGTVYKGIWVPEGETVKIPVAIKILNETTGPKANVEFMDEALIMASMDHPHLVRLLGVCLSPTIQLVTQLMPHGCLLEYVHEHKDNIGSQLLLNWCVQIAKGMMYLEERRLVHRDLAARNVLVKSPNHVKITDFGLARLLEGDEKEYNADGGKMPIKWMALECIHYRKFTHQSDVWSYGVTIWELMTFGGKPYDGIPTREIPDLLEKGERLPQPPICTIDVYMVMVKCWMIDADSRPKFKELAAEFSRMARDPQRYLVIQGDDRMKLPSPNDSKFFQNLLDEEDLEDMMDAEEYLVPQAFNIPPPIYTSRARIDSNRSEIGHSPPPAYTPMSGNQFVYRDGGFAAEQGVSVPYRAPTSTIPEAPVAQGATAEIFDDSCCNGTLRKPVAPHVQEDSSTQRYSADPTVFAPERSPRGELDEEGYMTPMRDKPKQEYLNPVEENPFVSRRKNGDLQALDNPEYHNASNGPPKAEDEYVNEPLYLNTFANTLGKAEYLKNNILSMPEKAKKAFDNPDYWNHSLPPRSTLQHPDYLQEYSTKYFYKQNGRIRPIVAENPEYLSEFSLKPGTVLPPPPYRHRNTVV
Kind of assay: isolated kinase profiling (Carna), single dose […], ATP at Km. The assay is classed as biochemical.

The target of assay [4] is EGFR (L858R) (Homo sapiens, UniProt P00533, L858R). Described as above. The assay is classed as biochemical.
Assay [5] addresses T3, HER2 (Homo sapiens, UniProt P04626).
T3 construct: gene ERBB2
The assay is described as above. The assay is classed as biochemical.

T3 sequence (P04626 23-1255): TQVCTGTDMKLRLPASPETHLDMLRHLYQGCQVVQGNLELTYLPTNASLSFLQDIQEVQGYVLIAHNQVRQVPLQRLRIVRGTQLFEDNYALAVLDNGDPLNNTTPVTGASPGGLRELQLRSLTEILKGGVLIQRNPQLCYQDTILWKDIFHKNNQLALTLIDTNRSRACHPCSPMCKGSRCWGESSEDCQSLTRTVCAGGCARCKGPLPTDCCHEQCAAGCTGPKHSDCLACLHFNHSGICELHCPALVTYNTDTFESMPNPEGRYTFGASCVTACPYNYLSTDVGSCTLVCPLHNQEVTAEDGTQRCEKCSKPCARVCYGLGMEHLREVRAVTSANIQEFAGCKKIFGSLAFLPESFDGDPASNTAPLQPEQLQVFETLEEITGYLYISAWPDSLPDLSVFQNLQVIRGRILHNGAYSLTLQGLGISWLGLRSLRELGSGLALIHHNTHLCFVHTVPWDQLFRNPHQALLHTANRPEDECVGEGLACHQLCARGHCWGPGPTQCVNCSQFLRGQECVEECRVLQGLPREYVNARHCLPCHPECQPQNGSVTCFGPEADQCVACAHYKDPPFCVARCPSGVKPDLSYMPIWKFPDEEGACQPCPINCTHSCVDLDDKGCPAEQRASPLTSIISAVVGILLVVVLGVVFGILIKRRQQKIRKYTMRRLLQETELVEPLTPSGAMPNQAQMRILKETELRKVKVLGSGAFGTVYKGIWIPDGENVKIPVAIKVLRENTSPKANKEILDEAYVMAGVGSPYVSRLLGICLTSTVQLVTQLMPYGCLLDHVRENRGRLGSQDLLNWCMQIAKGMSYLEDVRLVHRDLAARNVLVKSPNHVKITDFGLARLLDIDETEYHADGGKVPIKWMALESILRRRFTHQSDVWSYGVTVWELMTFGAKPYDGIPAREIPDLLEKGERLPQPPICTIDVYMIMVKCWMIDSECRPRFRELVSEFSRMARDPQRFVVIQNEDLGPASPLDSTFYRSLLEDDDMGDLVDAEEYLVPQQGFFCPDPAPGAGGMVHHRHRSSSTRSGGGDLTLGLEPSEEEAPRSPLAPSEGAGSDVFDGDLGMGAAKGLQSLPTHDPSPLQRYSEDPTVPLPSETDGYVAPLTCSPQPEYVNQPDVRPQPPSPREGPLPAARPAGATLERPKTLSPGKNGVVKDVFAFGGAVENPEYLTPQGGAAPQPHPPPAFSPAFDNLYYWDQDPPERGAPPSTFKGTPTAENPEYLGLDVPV

As for `Nc1nc(OCc2ccccc2)c2nc[nH]c2n1` [O^6-BG], the “MALDI-TOF MS of tryptic peptides of isolated MGMT incubated with 10 μM compound” value in assay [1] was “when we treated MGMT with MR30 or O^6-BG, we observed a mass shift”.
The IC50 is the midpoint of a concentration-inhibition curve. As to `Nc1nc(OCc2ccccc2)c2ncn(C(=O)N3CCN(CCNc4ccc5ncnc(Nc6cccc(Br)c6)c5c4)CC3)c2n1` [compound 5, (2-amino-6-(benzyloxy)-9H-purin-9-yl)(4-(2-((4-((3-bromophenyl)amino)quinazolin-6-yl)amino)ethyl)piperazin-1-yl)methanone], half-maximal inhibition in assay [2] (IC50) was put at 300 ± 170 nM. Also, the “MALDI-TOF MS of tryptic peptides of isolated MGMT incubated with 10 μM compound” value in assay [1] was “like O^6-BG, MR30 is capable of binding to MGMT and alkylate its Cys145”. The “isolated kinase profiling (Carna), single dose 500 nM, ATP at Km” value in assay [3] was “MR30 selectively inhibited kinases from HER family of proteins, including EGFR, EGFR (L858R, d746-750), HER2 and HER4”; in assay [4], “MR30, selectively inhibited kinases from the HER family of proteins [e.g. EGFR wild-type, EGFR (L858R)”; in assay [5] it was “MR30 selectively inhibited kinases from HER family of proteins, including EGFR, EGFR (L858R, d746-750), HER2 and HER4”.
